Laboratory results taken from ChEMBL document CHEMBL3745637, “New hybrid molecules with anticonvulsant and antinociceptive activity derived from 3-methyl- or 3,3-dimethyl-1-[1-oxo-1-(4-phenylpiperazin-1-yl)propan-2-yl]pyrrolidine-2,5-diones” (Bioorg Med Chem, 2016).
Active and inactive are the calls of the source. The calls are words filed in the database; no cut-off is given here.

Columns and labels:
Mus musculus [1] = test: Anticonvulsant activity in Swiss mouse assessed as protection against maximal electroshock-induced seizures at 300 mg/kg, ip pretreated for 2 hrs; type: functional, organism-based
Mus musculus [2] = test: Anticonvulsant activity in Swiss mouse assessed as protection against maximal electroshock-induced seizures at 300 mg/kg, ip pretreated for 1 hr; type: functional, organism-based
Mus musculus [3] = test: Anticonvulsant activity in Swiss mouse assessed as protection against maximal electroshock-induced seizures at 100 mg/kg, ip pretreated for 0.25 hrs; type: functional, organism-based
Mus musculus [4] = test: Anticonvulsant activity in Swiss mouse assessed as protection against maximal electroshock-induced seizures at 100 mg/kg, ip pretreated for 2 hrs; type: functional, organism-based
Mus musculus [5] = test: Anticonvulsant activity in Swiss mouse assessed as protection against maximal electroshock-induced seizures at 100 mg/kg, ip pretreated for 1 hr; type: functional, organism-based
Mus musculus [6] = test: Anticonvulsant activity in Swiss mouse assessed as protection against maximal electroshock-induced seizures at 100 mg/kg, ip pretreated for 0.5 hrs; type: functional, organism-based
Mus musculus [7] = test: Anticonvulsant activity in Swiss mouse assessed as protection against maximal electroshock-induced seizures at 300 mg/kg, ip pretreated for 0.25 hrs; type: functional, organism-based
Mus musculus [8] = test: Anticonvulsant activity in ip dosed Swiss mouse assessed as protection against maximal electroshock-induced seizures at 0.25 hrs; type: functional
Mus musculus [9] = test: Anticonvulsant activity in Swiss mouse assessed as protection against maximal electroshock-induced seizures at 300 mg/kg, ip pretreated for 0.5 hrs; type: functional, organism-based
Rattus norvegicus [10] = species on record: Rattus norvegicus; test: Displacement of [3H]Batrachotoxinin from sodium channel site 2 in rat cerebral cortex at 500 uM after 60 mins by scintillation counting method; type: tissue-based
Rattus norvegicus [11] = species on record: Rattus norvegicus; test: Displacement of [3H]Batrachotoxinin from sodium channel site 2 in rat cerebral cortex at 100 uM after 60 mins by scintillation counting method; type: tissue-based
Mus musculus [12] = test: Antinociceptive activity in ip dosed Swiss mouse assessed as reduction of formalin-induced licking at MES ED50 pretreated for 0.25 hrs measured during 15 to 20 mins; type: functional; design: scale not given: the % may be the effect or the level left
Mus musculus [13] = test: Anticonvulsant activity in ip dosed Swiss mouse assessed as reduction in clonic seizures at 0.5 hrs by subcutaneous pentylenetetrazole seizure test; type: functional
[14] = Protective index, ratio of TD50 for neurotoxicity in ip dosed Swiss mouse to ED50 for anticonvulsant activity in ip dosed Swiss mouse 6 Hz psychomotor seizure model at 0.25 hrs; type: toxicity, organism-based; conditions: in vivo, read-out: Ratio TD50/ED50
Mus musculus [15] = test: Anticonvulsant activity against Swiss mouse seizure model assessed as protection at 100 mg/kg, ip pretreated for 0.25 hrs by 6 Hz psychomotor seizure test; type: functional, organism-based
[16] = Neurotoxicity in ip dosed Swiss mouse seizure model assessed as motor impairment pretreated for 0.25 hrs measured within 60 s by chimney test; type: toxicity, organism-based; conditions: in vivo
Mus musculus [17] = test: Anticonvulsant activity against ip dosed Swiss mouse seizure model assessed as protection at 0.25 hrs by 6 Hz psychomotor seizure test; type: functional
Mus musculus [18] = test: Anticonvulsant activity in Swiss mouse assessed as reduction in clonic seizures at 100 mg/kg, ip pretreated for 2 hrs measured after 30 mins by subcutaneous pentylenetetrazole seizure test; type: functional, organism-based
Mus musculus [19] = test: Antinociceptive activity in ip dosed Swiss mouse assessed as reduction of formalin-induced licking at MES ED50 pretreated for 0.25 hrs measured during 1 to 5 mins; type: functional; design: scale not given: the % may be the effect or the level left
[20] = Protective index, ratio of TD50 for neurotoxicity in ip dosed Swiss mouse to ED50 for anticonvulsant activity in ip dosed MES Swiss mouse model at 0.25 hrs; type: toxicity, organism-based; conditions: in vivo, read-out: Ratio TD50/ED50
Mus musculus [21] = test: Anticonvulsant activity against Swiss mouse seizure model assessed as protection at 100 mg/kg, ip pretreated for 2 hrs by 6 Hz psychomotor seizure test; type: functional, organism-based
Mus musculus [22] = test: Toxicity in Swiss mouse assessed as death at 300 mg/kg, ip measured after 0.25 hrs; type: organism-based; conditions: in vivo
Rattus norvegicus [23] = species on record: Rattus norvegicus; test: Displacement of [3H]nitrendipine from calcium channel L-Type dihydropyridine site in rat cerebral cortex at 100 uM after 120 mins by scintillation counting method; type: tissue-based
Mus musculus [24] = test: Anticonvulsant activity in ip dosed Swiss mouse assessed as reduction in clonic seizures at 0.25 hrs by subcutaneous pentylenetetrazole seizure test; type: functional
Mus musculus [25] = test: Anticonvulsant activity in ip dosed Swiss mouse assessed as protection against maximal electroshock-induced seizures at 0.5 hrs; type: functional
[26] = Neurotoxicity in ip dosed Swiss mouse seizure model assessed as motor impairment pretreated for 0.5 hrs measured within 60 s by chimney test; type: toxicity, organism-based; conditions: in vivo
Mus musculus [27] = test: Anticonvulsant activity against ip dosed Swiss mouse seizure model assessed as protection at 0.5 hrs by 6 Hz psychomotor seizure test; type: functional

COc1cccc(N2CCN(C(=O)C(C)N3C(=O)CC(C)(C)C3=O)CC2)c1 (configuration not stated)
Activity (Mus musculus [1]): inactive
Activity (Mus musculus [2]): inactive
Activity (Mus musculus [3]): inactive
Activity (Mus musculus [4]): inactive
Activity (Mus musculus [5]): inactive
Activity (Mus musculus [6]): inactive

CC(C(=O)N1CCN(c2cccc(F)c2)CC1)N1C(=O)CC(C)(C)C1=O (configuration not stated)
Activity (Mus musculus [4]): inactive

CC(C(=O)N1CCN(c2ccccc2)CC1)N1C(=O)CC(C)(C)C1=O (configuration not stated)
Activity (Mus musculus [7]): Active
Activity (Mus musculus [1]): inactive
Activity (Mus musculus [4]): inactive
ED50 (Mus musculus [8]): > 130 mg/kg
Activity (Mus musculus [5]): inactive
Activity (Mus musculus [9]): Active

CC1CC(=O)N(C(C)C(=O)N2CCN(c3ccccc3Cl)CC2)C1=O (configuration not stated)
Activity (Mus musculus [1]): inactive
Activity (Mus musculus [3]): inactive
Activity (Mus musculus [4]): inactive
Activity (Mus musculus [5]): inactive
Activity (Mus musculus [6]): inactive

CC1CC(=O)N(C(C)C(=O)N2CCN(c3ccccc3C(F)(F)F)CC2)C1=O (configuration not stated)
Activity (Mus musculus [7]): Active
Activity (Mus musculus [1]): inactive
Activity (Mus musculus [4]): inactive

NC(=O)N1c2ccccc2C=Cc2ccccc21
inhibition (Rattus norvegicus [10]): 33.6%
inhibition (Rattus norvegicus [11]): 17.4%

CC(C(=O)N1CCN(c2cccc(Cl)c2)CC1)N1C(=O)CC(C)(C)C1=O (configuration not stated)
Activity (Mus musculus [7]): Active
Activity (Mus musculus [12]): 91%
ED50 (Mus musculus [13]): > 130 mg/kg
Activity (Mus musculus [3]): Active
Activity (Mus musculus [4]): inactive
ED50 (Mus musculus [8]): 120 mg/kg
selectivity ratio at 0.25 h [14]: 8.91
Activity (Mus musculus [15]): Active
TD50 at 0.25 h [16]: 176 mg/kg
ED50 (Mus musculus [17]): 19.8 mg/kg
Activity (Mus musculus [18]): inactive
Activity (Mus musculus [19]): 44%
Activity (Mus musculus [9]): Active
selectivity ratio at 0.25 h [20]: 1.47
Activity (Mus musculus [21]): inactive

CC1CC(=O)N(C(C)C(=O)N2CCN(c3ccccc3F)CC2)C1=O (configuration not stated)
Activity (Mus musculus [1]): inactive
Activity (Mus musculus [2]): inactive
Activity (Mus musculus [4]): inactive
Activity (Mus musculus [5]): inactive
Activity (Mus musculus [6]): inactive

CC1CC(=O)N(C(C)C(=O)N2CCN(c3ccc(Cl)cc3)CC2)C1=O (configuration not stated)
Activity (Mus musculus [1]): inactive

CC(C(=O)N1CCN(c2ccc(C(F)(F)F)cc2)CC1)N1C(=O)CC(C)(C)C1=O (configuration not stated)
Activity (Mus musculus [7]): inactive
Activity (Mus musculus [22]): Toxic

CC1(C)O[C@@H]2[C@@H](CO[C@@]3(COS(N)(=O)=O)OC(C)(C)O[C@@H]23)O1
inhibition (Rattus norvegicus [23]): 7.9%

CC1CC(=O)N(C(C)C(=O)N2CCN(c3ccc(F)cc3)CC2)C1=O (configuration not stated)
Activity (Mus musculus [1]): inactive
Activity (Mus musculus [2]): inactive

CCC(C(=O)N1CCN(c2cccc(Cl)c2)CC1)N1C(=O)CC(C)C1=O (configuration not stated)
ED50 (Mus musculus [24]): > 130 mg/kg
Activity (Mus musculus [12]): 93%
Activity (Mus musculus [1]): inactive
Activity (Mus musculus [4]): inactive
ED50 (Mus musculus [8]): 117 mg/kg
selectivity ratio at 0.25 h [14]: 5.13
Activity (Mus musculus [15]): Active
Activity (Mus musculus [5]): inactive
TD50 at 0.25 h [16]: 223 mg/kg
ED50 (Mus musculus [17]): 43.5 mg/kg
Activity (Mus musculus [19]): inactive
selectivity ratio at 0.25 h [20]: 1.91
Activity (Mus musculus [21]): inactive

CC1CC(=O)N(CC(=O)N2CCN(c3cccc(C(F)(F)F)c3)CC2)C1=O (configuration not stated)
ED50 (Mus musculus [25]): 80.6 mg/kg
ED50 (Mus musculus [13]): > 200 mg/kg
TD50 at 0.5 h [26]: 225 mg/kg
ED50 (Mus musculus [27]): 52.3 mg/kg

CC(C(=O)N1CCN(c2ccccc2F)CC1)N1C(=O)CC(C)(C)C1=O (configuration not stated)
Activity (Mus musculus [7]): inactive
Activity (Mus musculus [1]): inactive
Activity (Mus musculus [2]): inactive
Activity (Mus musculus [9]): inactive

CC1CC(=O)N(C(C)C(=O)N2CCN(c3ccc(Cl)c(Cl)c3)CC2)C1=O (configuration not stated)
Activity (Mus musculus [4]): inactive
Activity (Mus musculus [5]): inactive

CC1CC(=O)N(C(C)C(=O)N2CCN(c3cccc(F)c3)CC2)C1=O (configuration not stated)
Activity (Mus musculus [1]): inactive
Activity (Mus musculus [2]): inactive
Activity (Mus musculus [4]): inactive
Activity (Mus musculus [5]): inactive
Activity (Mus musculus [6]): inactive
